{
  "source": "paper PMC13266999",
  "about": "“Designing Antibiotics with Inherent Resistance to Efflux as a Strategy to Revive Discovery against Multidrug-Resistant Pathogens” (Journal of Medicinal Chemistry, 2026)",
  "key": {"S. aureus [1]": {"system": "S. aureus", "assay": "MIC (microbroth dilution)", "format": "cell-based, Staphylococcus aureus", "method_in_brief": "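Overnight stationary-phase cultures back-diluted and tested by broth microdilution with 2-fold compound series. MIC is lowest concentration with no visible growth, with OD600 also read. Separate runs included polymyxin B nonapeptide at 30 μg/mL final as outer-membrane permeabilizer.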"}, "E. coli [2]": {"system": "E. coli", "assay": "MIC (microbroth dilution)", "format": "cell-based", "conditions": "Escherichia coli", "description": "(§1) All bacteria were maintained on tryptic soy agar (TSA), except Streptococcus spp., which were maintained on Columbia agar plates containing 5% horse blood. […] Bacteria were grown to stationary phase in liquid culture overnight, with shaking at 200 rpm, before being back diluted to the relevant starting concentration for each assay below. MICs were measured by the microbroth dilution method. […] Absorbance at OD600 was read on a CLARIOstar spectrophotometer (BMG Labtech) and the MIC was defined as the minimum concentration of compound where no visible growth was detected. […] MICs were also performed in the presence of the outer membrane permeator, polymyxin b nonapeptide (PMBN) following the same MIC method but with the following variation. The 2-fold dilution series of compound was prepared as above, then 50 μL of PMBN at a final concentration of 30 μg/mL was added to relevant wells, while 50 μL/well of blank media was added to the remaining wells. Bacteria were then added at 50 μL/well for a starting concentration as above. […] The MICs were read and defined as above. All animal procedures were performed by the contract research organization Pharmacology Discovery Services Taiwan in accordance with the Guide for the Care and Use of Laboratory Animals. The procedures were approved by the Institutional Ethics Committee of Pharmacology Discovery Services Taiwan, Ltd. (approval no. AB127662), in compliance with animal welfare legislation in Taiwan."}, "K. pneumoniae": {"system": "K. pneumoniae", "assay": "MIC (microbroth dilution)", "format": "cell-based, Klebsiella pneumoniae", "conditions": "Klebsiella pneumoniae, read-out: MIC", "description": "as §1"}, "S. aureus [3]": {"system": "S. aureus", "assay": "Mutation frequency and agar MIC", "format": "cell-based", "description": "(§2) Mutation frequencies were performed on solid media at supra-inhibitory concentrations. First, the agar MIC was performed to account for any issues in solubility of compounds in solid media. Agar plates were prepared with 2-fold dilutions of compound.\n(§3) For the mutation frequency assay, bacteria from an overnight culture were grown to mid exponential phase in liquid broth, then 100 μL was spread onto an agar plate containing compound at concentrations above the agar MIC. A Miles-Misra was also conducted on an antibiotic-free agar plate to determine the CFU/mL of the starting population. […] The mutation frequency was calculated by dividing the number of colonies on supra inhibitory con-centration plates by the starting population."}, "E. coli [4]": {"system": "E. coli", "assay": "Mutation frequency and agar MIC", "format": "cell-based", "description": "as §2, §3"}, "A. baumannii": {"system": "A. baumannii", "assay": "Mutation frequency and agar MIC", "format": "cell-based", "conditions": "A118", "description": "as §2, §3"}, "[5]": {"biological_target": "T1, GyrA S84L mutant DNA gyrase (Staphylococcus aureus, UniProt P0A0K8+P20831, S84L)", "T1 construct": "purchased Inspiralis Ltd. (Norwich, UK)", "assay": "DNA gyrase supercoiling inhibition assay", "format": "biochemical, S. aureus", "description": "(§4) Gyrase inhibition was determined through biochemical assay kits from Inspiralis Ltd. (Norwich, UK), according to manufacturer’s instructions, and as described previously. Briefly, 1U of enzyme was incubated with 0.5 μg of relaxed […] DNA in the presence of compound in 1% DMSO for 30 min at 37 °C. A control reaction contained no compound but still contained 1% DMSO. The reactions were stopped through Stop Buffer addition and the DNA separated through addition of chloroform/iso-amyl alcohol (24;1). Samples were run on a 1% agarose gel at 75 V for 2 h, which was then stained with 1 μg/mL ethidium bromide and visualized using a NuGenius gel imager (Syngene). The intensity of the supercoiled DNA band was quantified using Syngene software, and the inhibition of the supercoiling of the DNA by the compounds was calculated."}, "WT DNA gyrase": {"biological_target": "T2, WT DNA gyrase (Staphylococcus aureus, UniProt P0A0K8+P20831)", "T2 construct": "purchased Inspiralis Ltd. (Norwich, UK)", "assay": "DNA gyrase supercoiling inhibition assay", "format": "biochemical, S. aureus", "description": "as §4"}, "S. aureus [6]": {"system": "S. aureus", "assay": "Serial passaging, MIC of adapted strains", "format": "cell-based", "conditions": "Staphylococcus aureus", "description": "MICs were performed on the first and 10th passage."}, "Pharmacokinetics": {"assay": "Pharmacokinetics", "conditions": "male, ICR (CD-1), mouse", "description": "Pharmacokinetic studies were performed in male ICR (CD-1) mice obtained from Charles River, UK. […] Blood samples were collected from the caudal vein into anticoagulant-treated capillaries at predetermined time points up to 8 h, with terminal cardiac puncture at 8 h. Plasma samples were stored at −80 °C until analysis. […] A compound-specific LC-MS/MS method was developed for each test article using matrix-matched calibrators following protein precipitation of samples."}},
  "note": "Like-named read-outs stand apart in the source and are kept apart here.",
  "data": [
    {"compound": "C[C@H]1COc2c(N3CC[C@@H](Nc4ncccn4)C3)c(F)cc3c(=O)c(C(=O)O)cn1c23", "note": "[Compound 46, (S)-9-Fluoro-3-methyl-7-oxo-10-((R)-3-(pyrimidin-2-ylamino)pyrrolidin-1-yl)-2,3-dihydro-7H-[1,4]oxazino[2,3,4-ij]quinoline-6-carboxylic acid]", "values": [
      {"measurement": "MIC", "setting": "S. aureus [1]; NCTC 13616", "result": "0.5 to 1", "unit": "µg/mL"},
      {"measurement": "fold difference in MIC, SA-1199B vs SA-1199", "setting": "S. aureus [1]; NorA-overexpressing vs WT", "result": 2, "unit": "fold"},
      {"measurement": "MIC", "setting": "S. aureus [1]; SA-1199B (NorA-overexpressing)", "result": 0.03, "unit": "µg/mL"},
      {"measurement": "MIC", "setting": "S. aureus [1]; Staphylococcus aureus, 1199, + 4% albumin, read-out: MIC", "result": "0.03 to 0.06", "unit": "µg/mL"},
      {"measurement": "MIC", "setting": "S. aureus [1]; Staphylococcus aureus, 1199b, + 4% albumin, read-out: MIC", "result": 0.06, "unit": "µg/mL"},
      {"measurement": "MIC", "setting": "S. aureus [1]; Staphylococcus aureus, ATCC9144, ATCC 9144, + 4% albumin, read-out: MIC", "result": "0.03 to 0.06", "unit": "µg/mL"},
      {"measurement": "MIC", "setting": "S. aureus [1]; Staphylococcus aureus, ATCC9144, ATCC 9144, read-out: MIC", "result": "≤ 0.03", "unit": "µg/mL"},
      {"measurement": "MIC", "setting": "S. aureus [1]; Staphylococcus aureus, NCTC13277, NCTC 13277, + 4% albumin, read-out: MIC", "result": "1 to 2", "unit": "µg/mL"},
      {"measurement": "MIC", "setting": "S. aureus [1]; Staphylococcus aureus, NCTC13277, NCTC 13277, read-out: MIC", "result": 1, "unit": "µg/mL"},
      {"measurement": "MIC", "setting": "S. aureus [1]; Staphylococcus aureus, NCTC13616, NCTC 13616, + 4% albumin, read-out: MIC", "result": "1 to 2", "unit": "µg/mL"},
      {"measurement": "MIC", "setting": "S. aureus [1]; Staphylococcus aureus, NCTC13616, NCTC 13616, read-out: MIC", "result": 0.5, "unit": "µg/mL"},
      {"measurement": "MIC", "setting": "S. aureus [1]; Staphylococcus aureus, SA-1199B (NorA-overexpressing)", "result": 0.016, "unit": "µg/mL"},
      {"measurement": "fold potentiation compared to levofloxacin", "setting": "S. aureus [1]; fluoroquinolone-resistant NCTC 13616 and NCTC 13277", "result": "16–32 fold"},
      {"measurement": "MIC", "setting": "E. coli [2]; 319238/UR", "result": 16, "unit": "µg/mL"},
      {"measurement": "MIC", "setting": "E. coli [2]; LEC006", "result": 0.125, "unit": "µg/mL"},
      {"measurement": "MIC", "setting": "E. coli [2]; LEC007", "result": 0.125, "unit": "µg/mL"},
      {"measurement": "MIC", "setting": "E. coli [2]; LEC077", "result": 4, "unit": "µg/mL"},
      {"measurement": "MIC", "setting": "E. coli [2]; LEC081", "result": 2, "unit": "µg/mL"},
      {"measurement": "MIC", "setting": "E. coli [2]; NCTC10418, NCTC 10418", "result": "≤ 0.06", "unit": "µg/mL"},
      {"measurement": "MIC", "setting": "E. coli [2]; NCTC11954, NCTC 11954", "result": 0.125, "unit": "µg/mL"},
      {"measurement": "MIC", "setting": "E. coli [2]; NCTC12241, NCTC 12241", "result": 0.06, "unit": "µg/mL"},
      {"measurement": "MIC", "setting": "E. coli [2]; NCTC12923, NCTC 12923", "result": "0.25 to 0.5", "unit": "µg/mL"},
      {"measurement": "MIC", "setting": "K. pneumoniae; M6", "result": "1 to 2", "unit": "µg/mL"},
      {"measurement": "MIC", "setting": "K. pneumoniae; NCTC13368, NCTC 13368", "result": 8, "unit": "µg/mL"},
      {"measurement": "MIC", "setting": "K. pneumoniae; TW3", "result": 1, "unit": "µg/mL"},
      {"measurement": "Agar MIC", "setting": "S. aureus [3]; ATCC 9144", "result": 0.008, "unit": "µg/mL"},
      {"measurement": "Agar MIC", "setting": "S. aureus [3]; NCTC 13616", "result": 0.5, "unit": "µg/mL"},
      {"measurement": "Agar MIC", "setting": "E. coli [4]; NCTC 12241", "result": 0.03, "unit": "µg/mL"},
      {"measurement": "Agar MIC", "setting": "E. coli [4]; NCTC 12923", "result": 0.12, "unit": "µg/mL"},
      {"measurement": "Agar MIC", "setting": "A. baumannii", "result": 0.03, "unit": "µg/mL"},
      {"measurement": "IC50", "setting": "[5]", "result": 95.3, "unit": "µM"},
      {"measurement": "IC50", "setting": "WT DNA gyrase", "result": 7.92, "unit": "µM"},
      {"measurement": "MIC", "setting": "S. aureus [6]; 1199B WT", "result": 0.015, "unit": "µg/mL"},
      {"measurement": "MIC", "setting": "S. aureus [6]; 1199B adapted to 4 x MIC of Compound 7", "result": 0.03, "unit": "µg/mL"},
      {"measurement": "MIC", "setting": "S. aureus [6]; 1199B adapted to 4 x MIC of Compound 46", "result": 0.125, "unit": "µg/mL"},
      {"measurement": "MIC", "setting": "S. aureus [6]; 1199B adapted to 4 x MIC of Compound 50", "result": 0.25, "unit": "µg/mL"},
      {"measurement": "MIC", "setting": "S. aureus [6]; 1199B adapted to 4 x MIC of Compound 51", "result": 0.06, "unit": "µg/mL"},
      {"measurement": "MIC", "setting": "S. aureus [6]; 1199 WT", "result": 0.008, "unit": "µg/mL"},
      {"measurement": "MIC", "setting": "S. aureus [6]; 1199 adapted to 4 x MIC of Compound 7", "result": 0.015, "unit": "µg/mL"},
      {"measurement": "MIC", "setting": "S. aureus [6]; 1199 adapted to 4 x MIC of Compound 46", "result": 0.03, "unit": "µg/mL"},
      {"measurement": "MIC", "setting": "S. aureus [6]; 1199 adapted to 4 x MIC of Compound 50", "result": 0.125, "unit": "µg/mL"},
      {"measurement": "MIC", "setting": "S. aureus [6]; 1199 adapted to 4 x MIC of Compound 51", "result": 0.03, "unit": "µg/mL"},
      {"measurement": "MIC", "setting": "S. aureus [6]; NCTC13616, NCTC 13616 WT", "result": 0.5, "unit": "µg/mL"},
      {"measurement": "MIC", "setting": "S. aureus [6]; NCTC13616, NCTC 13616 adapted to 4 x MIC of Compound 7", "result": 0.5, "unit": "µg/mL"},
      {"measurement": "MIC", "setting": "S. aureus [6]; NCTC13616, NCTC 13616 adapted to 4 x MIC of Compound 46", "result": 0.5, "unit": "µg/mL"},
      {"measurement": "MIC", "setting": "S. aureus [6]; NCTC13616, NCTC 13616 adapted to 4 x MIC of Compound 50", "result": 0.5, "unit": "µg/mL"},
      {"measurement": "MIC", "setting": "S. aureus [6]; NCTC13616, NCTC 13616 adapted to 4 x MIC of Compound 51", "result": 2, "unit": "µg/mL"},
      {"measurement": "half-life", "setting": "Pharmacokinetics; in vivo, po, 20 mg/kg", "result": 5.1, "unit": "h"},
      {"measurement": "AUC(0-inf)", "setting": "Pharmacokinetics; plasma, iv, 5 mg/kg", "result": 15700, "unit": "ng·h/mL"},
      {"measurement": "bioavailability", "setting": "Pharmacokinetics; plasma, po, 20 mg/kg", "result": 49.3, "unit": "%"}
    ]}
  ]
}
